# Results published in patent US20210130291A1, “METHODS FOR TREATING DIABETES USING VDAC1 INHIBITORS” (THE NATIONAL INSTITUTE FOR BIOTECHNOLOGY IN THE NEGEV LTD., priority 2016, published 2021).
# Entries after “also recorded” stand apart in the source; their conditions may differ.
# Key:
# [1] = test system: VDAC1 expression in INS-1 cells; assay: VDAC1 expression in INS-1 cells cultured at 5 or 20 mM glucose; type: cell-based, rat
# Procedure: INS-1 832/13 cells (kindly donated by Dr. C. B. Newgaard, Duke University, USA) were cultured in RPMI-1640 containing 11.1 mM D-glucose and supplemented with 10% fetal bovine serum, 100 U/ml penicillin (Gibco), 100 µg/ml streptomycin (Gibco), 10 mM HEPES, 2 mM glutamine, 1 mM sodium pyruvate, and 50 µM β-mercaptoethanol (Sigma), at 37° C. in a humidified atmosphere containing 95% air and 5% CO2. For VDAC1 over-expression by VDAC1 plasmid (1 μg/ml) and VDAC2 down-regulation by and siRNA, INS1 832/13 cells were cultured to 60% confluence. To study the long-term effects (24-72 h) of high glucose (20 mM) (glucotoxicity) compared to basal glucose (5 mM), INS-1 832/13 cells were cultured with RPMI 1640 complete media (Ahmed, M., et al., 2010. Islets 2, 283-292) in the presence or absence of indicated agents and thereafter VDAC1 expression, cell viability and function was measured.
# Total RNA from handpicked mouse islets, human donor islets (Diabetic and non-diabetic) or INS1 832/13 cells were extracted using RNAeasy (Qiagen, Hilden, Germany). RNA ([…]) was used for cDNA synthesis with SuperScript (Invitrogen, Carlsbad, Calif., USA). Concentration and purity of total RNA was measured with a NanoDrop ND-1000 spectrophotometer (A260/A280>1.9 and A260/A230>1.4) (NanoDrop Technologies, Wilmington, Del.) and RNA Quality Indicator (RQI) higher than 8.0 (Experion Automated Electrophoresis, Bio-Rad, USA) was considered to be high-quality total RNA preparations. A 10 μl of reaction mixture with 20 ng cDNA, 5 μl TaqMan mastermix (Applied Biosystems, Foster City, Calif., USA), and 100 nM TagMan gene expression assay were run in a 7900HT Fast Real-Time System (Applied Biosystems). The qPCR was carried out as follows: 50° C. for 2 minutes, 95° C. for 10 minutes, 40 cycles of 95° C. for 15 seconds, and 60° C. for 1 minute. The amount of mRNA was calculated relative to the amount of housekeeping genes (GAPDH, PPIA or HPRT) mRNA in the same sample by the formula X0/R0=2CtR-CtX, where X0 is the original amount of mRNA for the gene of interest, R0 is the original amount of HPRT mRNA, CtR the Ct value for HPRT, and CtX the Ct value for the gene of interest. Primer sequences are provided upon request.
# [2] = target: T1, plasma membrane targeted VDAC1 (plVDAC1) (Mus musculus, UniProt Q60932); assay: ATP release and ATP content of INS-1 cells transfected with plasma membrane targeted VDAC1; type: cell-based; conditions: for ATP release: racemate and enantiomers (FIG. 9a)
# T1 construct: expressed in transfected cells; host or cells: INS-1 832/13 cells (rat insulinoma), transient transfection; plasmid a gift from Dr. R. Buettner
# Procedure: (§1) ATP release from isolated mouse or human islets or from INS-1 cells after transfection with mitochondrial targeted VDAC1 (mtVDAC1) or plasma membrane targeted VDAC1 (plVDAC1) plasmids was determined using a luminometric assay kit according to manufacturer's recommendation (Biovision). After incubation of islets (50/vial) or INS-1 cells for 60 min, an aliquot of the media was removed for subsequent measurements of released ATP. Then the islets or INS-1 cells were washed 3 times and the lysates were used for measurements of ATP and protein contents followed the protocol provided by the vendor.
# INS-1 cells were transiently transfected with a plasmid encoding plasma membrane targeted VDAC1 (pVDAC1) as described in the Material and Method section herein above and in Example 3 (see also Buettner et al 2000. PNAS 97:3201-3206). After transfection (24-32 h and 2-4 h recovery in normal culture medium, RPMI 1640 with complete supplement) the INS-1 cells were washed followed by preincubation in SAB-buffer (See Material and Method above) containing 2.8 mM glucose. The final 1 h incubation was performed in SAB-buffer containing 1 mM glucose and the VDAC1 inhibitory compounds to be tested. At the end, the cells were lysed using lysis buffer, sonicated and the lysate as well as the incubation medium were analyzed for ATP content using a commercially available kit (Biovision, K354-100). Cellular protein content was analyzed by Pierce™ BCA protein assay kit (Thermo Scientific, USA).
# islets from T2D donors = assay: ATP content and GSIS in islets from T2D donors, acute addition of VDAC1 inhibitors; type: cell-based, human
# From the text: Human pancreatic islets were obtained through collaboration between Human Tissue Laboratory within Lund University Diabetes Centre (LUDC) and the Nordic Network for Clinical Islet Transplantation (Prof. Olle Korsgren, Uppsala University, Sweden). Donors were grouped according to HbA1c i.e. less than 6% (ND), between 6% and 6.5% (IGT), higher than 6.5% or history of diabetes (T2D). The human islets (70-90% purity) had been cultured in CMRL 1066 (ICN Biomedicals, Costa Mesa, Calif.) supplemented with 10 mM HEPES, 2 mM L-glutamine, […] gentamicin, […] fungizone (Gibco, BRL, Gaithersburg, Md.), 20 μg/ml ciprofloxacin (Bayer Healthcare, Leverkusen, Germany) and 10 mM nicotinamide at 37° C. (5% CO2) for 1 to 5 days prior to the arrival in the laboratory. The islets were then hand-picked under stereomicroscope prior to use. All procedures using human islets were approved by the ethical committees at Uppsala and Lund Universities, Sweden.
# (§2) Human pancreatic islets were collected under a stereomicroscope at room temperature and cultured at 5.5 or 20 mM glucose in the absence or presence of test agents for 72 h. Thereafter the islets were washed and preincubated for 30 min at 37° C. in Krebs Ringer bicarbonate buffer, pH 7.4, supplemented with N-2 hydroxyethylpiperazine-N′-2-ethanesulfonic acid (10 mM), 0.1% bovine serum albumin, and 1 mM glucose. Each incubation vial contained 12 islets in 1.0 ml KRB buffer solution and treated with 95% O2 and 5% CO2 to obtain constant pH and oxygenation. After preincubation, the buffer was changed to a medium containing either 1 mM or 16.7 mM glucose. The islets were then incubated for 1 h at 37° C. in a metabolic shaker (30 cycles per min). Immediately after incubation an aliquot of the medium was removed for analysis of insulin and the islets were incubated in acid-ethanol for insulin content determination by radioimmunoassay.
# as §1
# islets of C57/BL mice = assay: ATP content and GSIS in islets of control C57/BL mice; type: cell-based, mouse; conditions: VDAC1 antibody 10 nM
# Procedure: 5 weeks old db/db mice and control (C57/bl) (Janvier Laboratory, France), weighing 18-25 g, were used throughout the experiments. They were given a standard pellet diet (B&K) and tap water ad libitum. The experimental procedures were approved by the Ethics Committee for Animal Research at Lund University. Isolation of pancreatic islets was performed by retrograde injection of a collagenase solution via the bile-pancreatic duct and islets were then collected under a stereomicroscope at room temperature.
# as §2, §1
# [3] = plVDAC1-transfected INS-1 cells, 1 h at 1 mM glucose
# T1 sequence (Q60932 whole entry): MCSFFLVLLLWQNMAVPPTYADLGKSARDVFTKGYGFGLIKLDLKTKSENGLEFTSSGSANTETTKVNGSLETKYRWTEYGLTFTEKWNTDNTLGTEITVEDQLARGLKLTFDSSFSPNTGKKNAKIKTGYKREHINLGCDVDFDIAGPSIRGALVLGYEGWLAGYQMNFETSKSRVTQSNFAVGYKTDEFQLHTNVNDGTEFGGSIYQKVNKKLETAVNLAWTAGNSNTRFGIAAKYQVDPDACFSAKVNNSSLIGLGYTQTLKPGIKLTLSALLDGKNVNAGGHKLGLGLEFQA
compound,measurement,setting,value
"O=CC[C@@H](O)[C@H](O)[C@H](O)CO [2-deoxyglucose, reference compound]",VDAC1 expression,"[1]; INS-1 cells, 2-deoxyglucose, data not shown",increased VDAC1 expression
"CC1(C)C(=O)N([C@H]2CCc3c(O)cccc32)c2nc(Nc3cccc(CN4CCCC4)c3)ncc21 [MRT199665, reference compound]",effect of AMPK inhibitor on metformin-inhibited ATP release,"[2]; plVDAC1 transfected INS-1 cells, MRT199665 5 μM with metformin (FIG. 4i)",neither attenuated
O=C(CC(CO)N1CCN(c2ccc(OC(F)(F)F)cc2)CC1)Nc1ccc(Cl)cc1 (centres unmarked) [VBIT-4-1],ATP release,[2]; [3],efficiently inhibit ATP release
same,cellular ATP content,"[2]; plVDAC1-transfected INS-1 cells, 1 h at 1 mM glucose, racemate and enantiomers (FIG. 9b)",increase cellular ATP content
O=C(CC(CO)N1CCN(c2ccc(OC(F)(F)F)cc2)CC1)Nc1ccc(Cl)cc1 (centres unmarked) [VBIT-4-2],ATP release,[2]; [3],efficiently inhibit ATP release
"O=C1CC(N2CCC(Nc3ccc(OC(F)(F)F)cc3)CC2)C(=O)N1c1ccc(Cl)cc1 (centres unmarked) [AKOS, 1-(4-Chloro-phenyl)-3-[4-(4-trifluoromethoxy-phenylamino)-piperidin-1-yl]-pyrrolidine-2,5-dione]",glucose evoked VDAC1 upregulation (total VDAC1 expression),"[1]; INS-1 cells cultured 72 h at 20 mM glucose, VDAC1ab 10 nM, metformin, AKOS, VBIT-4 20 μM each (FIG. 4l, 4m)",abrogated the glucose evoked VDAC1 upregulation
same,GSIS,"islets from T2D donors; T2D islets, acute addition 1 h (FIG. 6f)",increased in parallel with the improved ATP generation
same,islet ATP content,"islets from T2D donors; islets from 5 T2D donors and one IGT donor, 1 h, at 1 and 16.7 mM glucose (FIG. 6e)",increased islet ATP content
same,ATP release (loss of cellular ATP),"[2]; plVDAC1-transfected INS-1 cells, 1 h at 1 mM glucose, VDAC1-ab 10 nM, metformin, AKOS, VBIT-4 20 μM each (FIG. 4c)",prevented; also recorded: rapidly inhibited
same,GSIS,islets of C57/BL mice; others 20 μM (FIG. 7e),do not affect
same,ATP content,islets of C57/BL mice; others 20 μM (FIG. 7d),do not affect
